# Test results taken from patent publication US20250249110A1, “ANTIMICROBIAL PEPTIDE DERIVATIVE AND USE THEREOF” (SICHUAN UNIVERSITY, priority 2016, published 2025).
# Where a SMILES comes first, the peptide text is derived from it. The star is where a group is joined. Succinyl(4-O-cholesteryl) = CC(C)CCC[C@@H](C)[C@H]1CC[C@H]2[C@@H]3CC=C4C[C@@H](OC(=O)CCC(=O)*)CC[C@]4(C)[C@H]3CC[C@]12C
# Assays:
# NY-ESO-1+B16 tumor cells = assay: NY-ESO-1 vaccine, preventive and therapeutic NY-ESO-1+ B16 tumor models; assay type: in vivo, mouse; details: both preventive and therapeutic model; NY-ESO-1 protein antigen
# Protocol: The specific steps are as follows: • (1) Vaccine preparation
# Incubate 20 μg of CpG and 40 μg of DP7-C at 37° C. for 15 min, add 5 μg of NY-ESO-1 protein, and replenish to a volume of 100 μl with sterile PBS. • (2) Grouping and dosage regimen
# In this study, animal experiments are divided into […]: NS, CpG, DP7-C and CpG/DP7-C, 10 mice for each group, and the dosage of each mouse is as follows: • (1) NS group: 100 μl of PBS; • (2) CpG group: 5 μg of NY-ESO-1 protein+20 μg of CpG; • (3) DP7-C group: 5 μg of NY-ESO-1 protein+40 μg of DP7-C; • (4) CpG/DP7-C group: 5 μg of NY-ESO-1 protein+20 μg of CpG+40 μg DP7-C;
# The total dosage of each mouse is 100 μl; if the dosage is less than 100 μl, sterile PBS may be added to reach 100 μl. • (3) Preventive immunity tumor model: perform subcutaneous immunotherapy at multiple sites on weeks 0, 2 and 4, and detect total antibody titers before inoculate tumor on week 5. Subcutaneously inoculate the tumor cells NY-ESO-1+B16: […] at the back of each mouse. After the tumor grows out, measure it at intervals of 3 days. Calculation formula of tumor volume: 0.52×length×width^2. Therapeutic immune tumor model: subcutaneously inoculate 2×10^5 of NY-ESO-1^+B16 tumor cells at the back of each mouse on day 0, and immunize on day 5 (once a week, for 3 consecutive times). Measure at intervals of 3 days and observe the survival time after the tumor grows out.
# multiple strains = assay: Antibacterial activity in vitro (MIC); assay type: cell-based
# dendritic cells (DC) = assay: Maturation of dendritic cells (flow cytometry); assay type: cell-based, mouse; details: 16 h incubation; vs NS group, statistically significant
# Protocol: The maturation of dendritic cells (DC) largely determines the immune response or tolerance of the body. […] Therefore, we detected the effect of DP7-C adjuvant on dendritic cell maturation by flow cytometry.
# The experimental steps are as follows: • (1) Isolate C57/BL mouse primary bone marrow cells and incubate in the induced medium containing 10 ng/ml of GM-CSF and 10 ng/ml of IL-4 for 5 days. • (2) Add the DP7-C adjuvant into DC cell culture, mix well, and incubate for 16 h. • (3) Collect the stimulated DC cells, wash them twice with PBS, re-suspend the cells in 100 μL of PBS, add 1 μL of anti-mouse CD16/CD32, and block at 4° C. for 30 min. • (4) Wash with PBS for 3 times, add 1 μg of FITC-anti-CD80, APC-anti-CD86 and PE-anti-MHC-II, incubate at room temperature for 30 min, wash PBS for 3 times and re-suspend in 200 μL of PBS for flow cytometry.
# B16 mouse melanoma cells = assay: FAM-siRNA transfection efficiency in vitro, B16; assay type: cell-based; details: FAM-siRNA 1 μg, flow cytometry
# Protocol: In 24 h before transfection, the C26 mouse colon cancer cells or B16 mouse melanoma cells are laid in a 6-well plate with a density of 5×10^4 cells per well, and 2 ml of DMEM medium containing 20% FBS is added to each well. FAM-modified no-sense siRNA (FAM-siRNA) is used as a reporter gene to detect transfection efficiency, while PEI25K and Lipofectamin2000 are used as positive controls. During transfection, the medium is firstly replaced with 1 ml of serum-free DMEM medium. Subsequently, the gene transfection complexes mixed at different proportions are added to each well, and each complex contains 1 μg of FAM-siRNA. Among them, the ratio of siRNA/DP7-C, siRNA/PEI25K and siRNA/Lipofectamin2000 is 1:5, 1:2 and 1:2 respectively. After the medium is incubated at 37° C. for 4 h, it is replaced by DMEM medium supplemented with 20% FBS and sequentially incubated. After 24 h, the transfection is observed under a microscope and photographed. All cells in the wells including floating and adherent cells are collected, washed twice with precooled PBS, and the total fluorescence intensity of each group is counted by flow cytometer (EPICS Elite ESP, USA).
# red blood cells = assay: Hemolysis test in vitro; assay type: cell-based, human (healthy volunteers)
# Protocol: In the hemolysis test, DP7 and DP7-C at the same concentration were detected for the hemolysis of red blood cells. • 1. Take the blood of healthy volunteers and put into an anticoagulant tube and gently mix. • 2. Take out the anticoagulant, add isometric physiological saline, mix slowly and evenly, centrifuge at 400×g for 10 min, and discard the supernatant. • 3. Slowly mix the red blood cells and wash with PBS, centrifuge at 400×g for 10 min, discard the supernatant, and wash the cell precipitate with PBS for three times. • 4. Dilute with PBS to obtain 20% (v/v) red blood cell solution, which can be used immediately or stored at 4° C. for about 2 weeks (without hemolysis). • 5. Dilute the drug into a series of concentration gradients with PBS, add 100 μL of drug into a 96-well plate, take 100 μL of 2% Twain 20 as the positive control, add 100 μL of PBS to the negative control. Repeat the process 3 times for each concentration of drug. • 6. Dilute 20% (v/v) of red blood cell solution with PBS according to the volume ratio of 1:20, mix evenly and add to a 96-well plate, with the drug concentration of 100, 200, 400, 600, 800, 1000, 1200, 1600 μg/mL respectively, and incubate at 37° C. for 1 h. • 7. Incubate the mixture of drugs and red blood cells, centrifuge at 900×g for 10 min, add 160 μL of the supernatant to a new 96-well plate, and read the absorbance value at OD 450 nm. • 8. According to the absorbance value of A450, calculate the percentage of hemolysis corresponding to each concentration of drugs.
# The calculation formula of the percentage of hemolysis is: […]
compound,measurement,setting,value
"CC[C@H](C)[C@H](NC(=O)[C@H](CCCNC(=N)N)NC(=O)[C@H](Cc1c[nH]c2ccccc12)NC(=O)[C@H](CCC(N)=O)NC(=O)[C@@H](NC(=O)CCC(=O)O[C@H]1CC[C@@]2(C)C(=CC[C@H]3[C@@H]4CC[C@H]([C@H](C)CCCC(C)C)[C@@]4(C)CC[C@@H]32)C1)C(C)C)C(=O)N[C@@H](CCCNC(=N)N)C(=O)N[C@H](C(=O)N[C@@H](C)C(=O)N[C@H](C(=O)N[C@H](C(=O)N[C@@H](CCCNC(=N)N)C(=O)N[C@@H](CCCCN)C(N)=O)[C@@H](C)CC)C(C)C)C(C)C [DP7-C, Chol-suc-VQWRIRVAVIRK-NH2] ({Succinyl(4-O-cholesteryl)}-VQWRIRVAVIRK-NH2)",tumor growth,NY-ESO-1+B16 tumor cells,inhibit tumor growth to some extent
same,MIC,multiple strains,> 1024 µg/mL
same,"expression of MHC II, CD80 and CD86",dendritic cells (DC),increased
same,transfection efficiency,B16 mouse melanoma cells,53.3 ± 4.0%
same,appearance of hemolysis test,red blood cells; FIG. 5B,red blood cells are not lysed
same,degree of lysis to red blood cells,"red blood cells; drug concentration more than 0.8 mg/mL, 37° C. 1 h",much less than DP7
